Experimental data: ChEMBL document CHEMBL4257530, “Synthesis and evaluation of 6-heteroarylamino-2,4,5-trimethylpyridin-3-ols as inhibitors of TNF-α-induced cell adhesion and inflammatory bowel disease” (Medchemcomm, 2018)
Calls of active or inactive are those of the source. The calls are words filed in the database; no cut-off is given here.

Legend:
HT-29 [1] = experiment: Inhibition of TNFalpha-mediated adhesion of BCECF fluorescence-labeled human U937 cells to human HT-29 cells at 1 uM pretreated for 1 hr followed by BCECF fluorescence-labeled human U937 cell/TNFalpha addition and measured after 3 hrs by fluorescence assay relative to control; format: functional
HT-29 [2] = experiment: Potency index, ratio of compound effect to 5-ASA effect for inhibition of TNFalpha-mediated adhesion of BCECF fluorescence-labeled human U937 cells to human HT-29 cells at 1 uM; format: functional
HT-29 [3] = experiment: Potency index, ratio of 5-ASA IC50 to test compound IC50 for TNFalpha-mediated adhesion of BCECF fluorescence-labeled human U937 cells to human HT-29 cells; format: functional
Rattus norvegicus [4] = experiment: Antiinflammatory activity in TNBS-induced Sprague-Dawley rat colitis model assessed as decrease in MCP1 expression at 1 mg/kg, po administered once daily via gavage for 5 days starting 1 day post TNBS induction measured on day 7 by ELISA; format: functional, organism-based
Rattus norvegicus [5] = experiment: Antiinflammatory activity in TNBS-induced Sprague-Dawley rat colitis model assessed as decrease in TNFalpha expression at 1 mg/kg, po administered once daily via gavage for 5 days starting 1 day post TNBS induction measured on day 7 by Western blot analysis; format: functional, organism-based
Rattus norvegicus [6] = experiment: Antiinflammatory activity in TNBS-induced Sprague-Dawley rat colitis model assessed as decrease in IL1beta expression at 1 mg/kg, po administered once daily via gavage for 5 days starting 1 day post TNBS induction measured on day 7 by Western blot analysis; format: functional, organism-based
Rattus norvegicus [7] = experiment: Antiinflammatory activity in TNBS-induced Sprague-Dawley rat colitis model assessed as increase in IL-10 expression at 1 mg/kg, po administered once daily via gavage for 5 days starting 1 day post TNBS induction measured on day 7 by Western blot analysis; format: functional, organism-based
Rattus norvegicus [8] = experiment: Antiinflammatory activity in TNBS-induced Sprague-Dawley rat colitis model assessed as decrease in IL-6 expression at 1 mg/kg, po administered once daily via gavage for 5 days starting 1 day post TNBS induction measured on day 7 by Western blot analysis; format: functional, organism-based
Rattus norvegicus [9] = experiment: Antiinflammatory activity in TNBS-induced Sprague-Dawley rat colitis model assessed as myeloperoxidase level at 1 mg/kg, po administered once daily via gavage for 5 days starting 1 day post TNBS induction measured on day 7 by ELISA (reference value: 456.67 +/- 41.78 ng/ml); format: functional
Rattus norvegicus [10] = experiment: Antiinflammatory activity in TNBS-induced Sprague-Dawley rat colitis model assessed as decrease in ICAM1 expression at 1 mg/kg, po administered once daily via gavage for 5 days starting 1 day post TNBS induction measured on day 7 by Western blot analysis; format: functional, organism-based
Rattus norvegicus [11] = experiment: Antiinflammatory activity in TNBS-induced Sprague-Dawley rat colitis model assessed as reduction in body weight loss at 1 mg/kg, po administered once daily via gavage for 5 days starting 1 day post TNBS induction measured on day 7; format: functional, organism-based
Rattus norvegicus [12] = experiment: Antiinflammatory activity in TNBS-induced Sprague-Dawley rat colitis model assessed as recovery in colon weight at 1 mg/kg, po administered once daily via gavage for 5 days starting 1 day post TNBS induction measured on day 7 relative to control; format: functional
Rattus norvegicus [13] = experiment: Antiinflammatory activity in TNBS-induced Sprague-Dawley rat colitis model assessed as decrease in ICAM1 expression at 300 mg/kg, po administered once daily via gavage for 5 days starting 1 day post TNBS induction measured on day 7 by Western blot analysis; format: functional, organism-based
Rattus norvegicus [14] = experiment: Antiinflammatory activity in TNBS-induced Sprague-Dawley rat colitis model assessed as decrease in TNFalpha expression at 300 mg/kg, po administered once daily via gavage for 5 days starting 1 day post TNBS induction measured on day 7 by Western blot analysis; format: functional, organism-based
Rattus norvegicus [15] = experiment: Antiinflammatory activity in TNBS-induced Sprague-Dawley rat colitis model assessed as increase in IL-10 expression at 300 mg/kg, po administered once daily via gavage for 5 days starting 1 day post TNBS induction measured on day 7 by Western blot analysis; format: functional, organism-based
Rattus norvegicus [16] = experiment: Antiinflammatory activity in TNBS-induced Sprague-Dawley rat colitis model assessed as decrease in IL1beta expression at 300 mg/kg, po administered once daily via gavage for 5 days starting 1 day post TNBS induction measured on day 7 by Western blot analysis; format: functional, organism-based
Rattus norvegicus [17] = experiment: Antiinflammatory activity in TNBS-induced Sprague-Dawley rat colitis model assessed as decrease in IL-6 expression at 300 mg/kg, po administered once daily via gavage for 5 days starting 1 day post TNBS induction measured on day 7 by Western blot analysis; format: functional, organism-based
Rattus norvegicus [18] = experiment: Antiinflammatory activity in TNBS-induced Sprague-Dawley rat colitis model assessed as recovery in colon weight at 300 mg/kg, po administered once daily via gavage for 5 days starting 1 day post TNBS induction measured on day 7; format: functional, organism-based
Rattus norvegicus [19] = experiment: Antiinflammatory activity in TNBS-induced Sprague-Dawley rat colitis model assessed as myeloperoxidase level at 300 mg/kg, po administered once daily via gavage for 5 days starting 1 day post TNBS induction measured on day 7 by ELISA (reference value: 456.67 +/- 41.78 ng/ml); format: functional
Rattus norvegicus [20] = experiment: Antiinflammatory activity in TNBS-induced Sprague-Dawley rat colitis model assessed as decrease in MCP1 expression at 300 mg/kg, po administered once daily via gavage for 5 days starting 1 day post TNBS induction measured on day 7 by ELISA; format: functional, organism-based
HT-29 [21] = experiment: Inhibition of TNFalpha-mediated adhesion of BCECF fluorescence-labeled human U937 cells to human HT-29 cells at 20 mM pretreated for 1 hr followed by BCECF fluorescence-labeled human U937 cell/TNFalpha addition and measured after 3 hrs by fluorescence assay relative to control; format: functional

SMILES	inhibition at 1 µM (HT-29 [1]) [%]	Ratio (HT-29 [2])	other results
Cc1nc(Nc2nccs2)c(C)c(C)c1O	23.7	3 - 5	–
Cc1nc(Nc2ccc3ncccc3c2)c(C)c(C)c1O	56.6	3 - 5	–
Cc1nc(Nc2nnc(-c3ccccc3)o2)c(C)c(C)c1O	1.4	–	–
Cc1nc(Nc2nc3ccccc3[nH]2)c(C)c(C)c1O	59.9	3 - 5	–
Cc1nc(Nc2nnc(-c3ccc(Br)cc3)s2)c(C)c(C)c1O	13.7	3 - 5	–
Cc1nc(Nc2ccc(Cl)cn2)c(C)c(C)c1O	59	3 - 5	–
Cc1nc(Nc2ccnc3ccccc23)c(C)c(C)c1O	60.2	3 - 5	–
Cc1nnc(Nc2nc(C)c(O)c(C)c2C)o1	26.2	3 - 5	–
Cc1nc(Nc2cccc3cnccc23)c(C)c(C)c1O	52.8	3 - 5	–
Cc1nc(Nc2ccccn2)c(C)c(C)c1O	8.5	3 - 5	–
Cc1nc(Nc2cncc3ccccc23)c(C)c(C)c1O	55.4	3 - 5	–
Cc1nc(Nc2cnc3ccccc3c2)c(C)c(C)c1O	63.4	3 - 5	Ratio IC50 (HT-29 [3]): <=7 ×10⁴ No_unit
Cc1ccc(-c2nnc(Nc3nc(C)c(O)c(C)c3C)s2)cc1	16.6	3 - 5	–
Cc1nc(Nc2ccc(Cl)nc2)c(C)c(C)c1O	75.4	3 - 5	Activity (Rattus norvegicus [4]): Active; Ratio IC50 (HT-29 [3]): <=7 ×10⁴ No_unit; Activity (Rattus norvegicus [5]): Active; Activity (Rattus norvegicus [6]): Active; Activity (Rattus norvegicus [7]): Active; Activity (Rattus norvegicus [8]): Active; Activity (Rattus norvegicus [9]): 127.02 ng/mL; Activity (Rattus norvegicus [10]): Active; Activity (Rattus norvegicus [11]): Active; Activity (Rattus norvegicus [12]): 72%
CCOC(=O)c1coc(Nc2nc(C)c(O)c(C)c2C)n1	38.5	3 - 5	–
Cc1nc(Nc2nnc(-c3ccc(C(F)(F)F)cc3)o2)c(C)c(C)c1O	55.7	3 - 5	–
COC(=O)c1sccc1Nc1nc(C)c(O)c(C)c1C	23.7	3 - 5	–
COc1ccc(-c2nnc(Nc3nc(C)c(O)c(C)c3C)s2)cc1	13.2	3 - 5	–
Cc1nc(Nc2cccc3[nH]ccc23)c(C)c(C)c1O	31.9	3 - 5	–
Cc1nc(Nc2nnc(-c3ccccc3)s2)c(C)c(C)c1O	78.7	3 - 5	Activity (Rattus norvegicus [4]): Active; Activity (Rattus norvegicus [5]): Active; Activity (Rattus norvegicus [6]): Active; Activity (Rattus norvegicus [7]): Active; Activity (Rattus norvegicus [8]): Active; Activity (Rattus norvegicus [9]): 107.37 ng/mL; Activity (Rattus norvegicus [10]): Active; Activity (Rattus norvegicus [11]): Active; Activity (Rattus norvegicus [12]): 79%
O=C(O)c1cc(/N=N/c2ccc(S(=O)(=O)Nc3ccccn3)cc2)ccc1O [SULFASALAZINE]	–	–	Activity (Rattus norvegicus [13]): Active; Activity (Rattus norvegicus [14]): Active; Activity (Rattus norvegicus [15]): Active; Activity (Rattus norvegicus [16]): Active; Activity (Rattus norvegicus [17]): Active; Activity (Rattus norvegicus [18]): Active; Activity (Rattus norvegicus [19]): 209.65 ng/mL; Activity (Rattus norvegicus [20]): Active
Cc1nc(Nc2ccc(C(F)(F)F)cn2)c(C)c(C)c1O	34.8	3 - 5	–
Cc1nc(Nc2ccc(C(F)(F)F)nc2)c(C)c(C)c1O	50.6	3 - 5	–
Cc1nc(Nc2nnc(C(F)(F)F)o2)c(C)c(C)c1O	35.8	3 - 5	–
Nc1ccc(O)c(C(=O)O)c1 [MESALAMINE]	3.5	–	inhibition at 20000 µM (HT-29 [21]): 50.5%
Cc1nc(Nc2cccc3cccnc23)c(C)c(C)c1O	10.4	3 - 5	–
Cc1nc(Nc2cc(C(F)(F)F)ccn2)c(C)c(C)c1O	22.8	3 - 5	–
Cc1nc(Nc2nnc(-c3ccc(C(F)(F)F)cc3)s2)c(C)c(C)c1O	52.3	3 - 5	–
